No end group written: not given here.
What was measured:
[1] = test system: HUVEC; test: Analysis of caspase 3 activity in HUVEC deprived of FBS; assay type: cell-based, human; settings: VEGF 20 ng/ml plus peptide 20 ng/ml, 4 h
Description: HUVE cells (1×10^4/cm2) were incubated in medium without FBS, in the absence or presence of VEGF (20 ng/ml) and QK (5 ng/ml), at 37° C. in a 5% CO2 atmosphere. After 4 h, caspase 3 activity was determined. Results are expressed as mean values of triplicates.
HUVE cells (1×10^4/cm2) were incubated in medium without FBS, in the absence or presence of VEGF (20 ng/ml) and the indicated peptides (20 ng/ml), at 37° C. in a 5% CO2 atmosphere. After 4 h, caspase 3 activity was determined. Results are expressed as mean values of triplicates.
(§1) Analysis of caspase 3 activity—Cells (2×104) were lysed in a buffer containing Hepes 50 mM, DTT 1 mM, EDTA 0.1 mM, NP-40 0.1%, CHAPS 0.1% and protein quantitation determined. Protein aliquots (20 μg) were incubated with 20 μM Ac-DEVD-AMC (Pharmingen, San Diego, Calif.) in a buffer containing Hepes 50 mM, DTT 1 mM, EDTA 0.1 mM, NP-40 0.1%, CHAPS 0.1%, at 37° C. for 3 h. Caspase 3 activity was determined in the cytosolic extracts by analysing the release of 7-amino-4-methylcoumarin (AMC) from N-acetyl-DEVD-AMC (Thornberry N A, et al. Nature 1992; 356:768-74); the release of AMC was monitored in a spectrofluorometer with an excitation wavelength of 380 nm and emission wavelength of 440 nm.
as §1, with “356: 768-74);” for “356:768-74);”

[2] = test system: HUVEC cells; test: Binding of fluorescein-conjugated MA peptide to HUVEC cells (flow cytometry); design: species or system human; settings: fluorescein-conjugated peptide, FACS
Description: HUVE cells (1×10^4/cm2) were incubated with 500 nM MA peptide conjugated with fluorescein and competed with increasing amount of VEGF at 30 min at 4° C. in the dark. Then, cell fluorescence was analyzed by flow cytometry.
(§2) Fluorescence—Cells (3×105) were incubated with saturating amounts of FITC-conjugated and the other indicated reagents, 5 min at 4° C. in the dark. After washing with PBS, the cells were resuspended in PBS and analyzed with a FACScan (Becton Dickinson) flow cytometer.
Binding of MA peptide to HUVEC cells. To verify that MA peptide bound to HUVEC cells, we incubated the cells with MA or a scrambled peptide conjugated with fluorescein and analyze the binding by FACS.

[3] = test system: ERK1/2 kinase; test: VEGF-induced activation of ERK kinase in HUVEC (western blot); assay type: cell-based, human; settings: VEGF 20 ng/ml plus MA 100 ng/ml, 30 min
Description: (§3) (a) HUVE cells (1×10^4/cm2) were incubated whit VEGF (20 ng/ml) in the absence or presence of MA peptide (100 ng/ml), in duplicates, for 30 min. Then cell lysates were obtained and analysed in Western blot with anti-phospho-ERK antibody. b) HUVE cells (1×10^4/cm2) were incubated with VEGF (20 ng/ml) in the absence or presence of MA peptide (100 ng/ml), in triplicates, for 24 h, at 37° C. in a 5% CO2 atmosphere. Then FITC-Annexin V binding was analyzed by flow cytometry.
Western blotting. Cell total protein lysates were prepared in sample buffer (2% sodium-dodecyl-sulphate, 10% glycerol, 2% mercaptoethanol and 60 mM Tris-HCl pH 6.8 in demineralized water) on ice. Lysates (25 μg) were run on 12% SDS-PAGE gels and electrophoretically transferred to nitrocellulose. Nitrocellulose blots were blocked with 5% BSA in Tris Buffer Saline Tween-20 (TBST) buffer [20 mM Tris-HCl (pH 7.4), 500 mM NaCl, and 0.01% Tween 20] and incubated with primary antibody in TBST-5% BSA overnight at 4° C. Immunoreactivity was detected by sequential incubation with horseradish peroxidase-conjugated secondary antibody and enhanced chemiluminescence reagents following standard protocols (Amersham Bioscience, UK).
Inhibition of VEGF-induced activation of ERK kinase by MA peptide. […] We therefore investigated whether MA peptide binding to the cells could block ERK activation by VEGF.

[4] = test system: HUVEC; test: FITC-Annexin V binding of HUVEC by flow cytometry; assay type: cell-based, human; settings: HUVEC 24 h, VEGF 20 ng/ml plus MA peptide 100 ng/ml
Description: as §3, §2
Effect of MA peptide on the appearance of annexin V+ cells in cultures with VEGF. Apoptotic cells externalize phosphatidylserine, that is bound by annexin V (Steensma D P, et al., Methods Mol. Med. 2003; 85: 323-32).

[5] = target: T1, KDR (Bos taurus, UniProt A0AAA9SPC9); test: KDR activation (immunoprecipitation, phospho-tyrosine western blot) in BAEC; assay type: cell-based, bovine; settings: 15 minutes of exposure
T1 construct: we immunoprecipitated total KDR and Flt-1 from BAEC whole extracts; endogenous in cells; host or cells: BAEC (bovine aorta endothelial cells, SV40-immortalized)
Description: (§4) VEGF receptors binding and activation. a) VEGF competitive binding on BAEC. 1 μg of membrane protein was plated with QK and [^125I]-VEGF (500000 cpm, 10^−10 M). b) KDR activation. After stimulation total KDR was immunoprecipitated from a whole-cell protein extracts and phospho-tyrosine was visualized by a specific antibody, anti-rabbit HRP-conjugated secondary antibody and standard chemiluminescence. c) Flt-1 activation. After stimulation total Flt-1 was immunoprecipitated from a whole-cell protein extracts and phospho-tyrosine was visualized by specific antibody, anti-rabbit HRP-conjugated secondary antibody and standard chemiluminescence.
(§5) Western blot. Cells were plated on six-well dishes and serum starved overnight. On the next day, cells were treated with different amount of peptide in absence or in presence of VEGF165 for 15 minutes at 37° C. and then dissolved in RIPA-SDS buffer (50 mM Tris-HCl (pH 7.5), 150 mM NaCl, 1% NP-40, 0.25% deoxycholate, 9.4 mg/50 ml sodium orthovanadate, […]). In some experiments, total KDR and Flt-1 were immunoprecipitated from an equal amount of whole-cell protein extracts using protein A/G agarose beads conjugated with antibodies raised against total KDR or Flt-1 (R&D). Proteins from whole-cell extracts or immunocomplexes were resolved by PAGE and transferred to nitrocellulose. […]

[6] = target: T2, Flt-1 (Bos taurus, UniProt F1MDD9); test: Flt-1 activation (immunoprecipitation, phospho-tyrosine western blot) in BAEC; assay type: cell-based, bovine; settings: 15 minutes of exposure
T2 construct: we immunoprecipitated total KDR and Flt-1 from BAEC whole extracts; endogenous in cells; host or cells: BAEC (bovine aorta endothelial cells, SV40-immortalized)
T2 sequence (F1MDD9 1-1251): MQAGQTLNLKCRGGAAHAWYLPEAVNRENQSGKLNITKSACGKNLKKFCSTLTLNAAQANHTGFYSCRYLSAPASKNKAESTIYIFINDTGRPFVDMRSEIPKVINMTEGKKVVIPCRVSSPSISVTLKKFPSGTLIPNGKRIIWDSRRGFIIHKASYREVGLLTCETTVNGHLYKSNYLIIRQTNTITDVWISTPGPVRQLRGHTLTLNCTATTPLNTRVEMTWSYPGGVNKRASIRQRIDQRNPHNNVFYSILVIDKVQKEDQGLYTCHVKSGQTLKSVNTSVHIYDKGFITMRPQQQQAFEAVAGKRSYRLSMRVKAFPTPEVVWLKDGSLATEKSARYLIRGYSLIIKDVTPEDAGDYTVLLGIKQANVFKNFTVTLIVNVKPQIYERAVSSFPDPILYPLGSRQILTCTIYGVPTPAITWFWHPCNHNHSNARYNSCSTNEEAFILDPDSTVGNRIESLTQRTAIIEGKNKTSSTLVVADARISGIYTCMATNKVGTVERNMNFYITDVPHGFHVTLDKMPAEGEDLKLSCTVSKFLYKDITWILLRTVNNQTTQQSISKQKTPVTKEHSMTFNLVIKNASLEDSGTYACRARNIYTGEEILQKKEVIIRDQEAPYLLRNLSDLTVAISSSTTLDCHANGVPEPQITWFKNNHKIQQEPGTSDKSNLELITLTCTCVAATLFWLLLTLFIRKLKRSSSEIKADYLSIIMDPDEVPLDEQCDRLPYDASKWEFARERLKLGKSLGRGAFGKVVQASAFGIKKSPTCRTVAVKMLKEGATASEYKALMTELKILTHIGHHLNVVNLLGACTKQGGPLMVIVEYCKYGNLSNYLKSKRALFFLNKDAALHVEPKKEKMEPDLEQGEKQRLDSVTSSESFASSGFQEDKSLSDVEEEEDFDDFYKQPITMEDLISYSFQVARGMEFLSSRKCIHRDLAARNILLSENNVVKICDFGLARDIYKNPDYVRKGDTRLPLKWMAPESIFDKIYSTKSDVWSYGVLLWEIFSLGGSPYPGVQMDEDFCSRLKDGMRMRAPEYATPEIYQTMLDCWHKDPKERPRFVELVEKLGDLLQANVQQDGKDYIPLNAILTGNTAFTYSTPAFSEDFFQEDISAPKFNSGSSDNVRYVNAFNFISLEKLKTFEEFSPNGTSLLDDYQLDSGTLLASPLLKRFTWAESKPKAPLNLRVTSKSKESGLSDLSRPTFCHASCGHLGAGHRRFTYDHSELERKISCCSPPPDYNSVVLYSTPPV
Description: as §4, §5

[7] = test system: RB; test: RB phosphorylation (western blot); assay type: cell-based, bovine; settings: 12 and 18 hours; QK 10^-6 M, VEGF165 100 ng/ml, VEGF 15 10^-6 M
Description: Effect of QK on cell proliferation. a) DNA synthesis. BAEC were incubated in DMEM with [^3H]-thymidine and QK in absence or in presence of VEGF165 (100 ng/ml). After 24 hours cells were fixed and lysed. Scintillation liquid was added and [^3H]-thymidine incorporation was evaluated. b) Cell proliferation. BAEC were stimulated with the indicated amount of QK in absence or in presence of VEGF165 (100 ng/ml). Cell number was determined at 24 hours after stimulation. c) RB phosphorylation. p-RB was evaluated at 12 and 18 hours after stimulation with QK (10^-6M), VEGF165 (100 ng/ml) and VEGF 15 (10^−6 M).
Cells proliferation assay. Cells were seeded at a density of 10000 per well in six well plates, serum starved overnight and then stimulated with QK (10-12 to 10^−6 M) in absence or in presence of VEGF165. Cell number was determined at 24 hours after stimulation. The p-RB, was evaluated by western blot 12 and 18 hours after stimulation with QK (10^−6 M), VEGF165 and VEGF 15 (10^−6 M).

[8] = test system: WKY rats; test: Ischemic hindlimb model, digital angiographies and blood flow determination; assay type: in vivo, rat; settings: 14 days
[9] = target: VEGF receptors on bovine aorta endothelial cell (BAEC) membranes; test: displacement of [125I]-VEGF from BAEC membranes (1 ug membrane protein) by QK at 10^-13 to 10^-8 M, gamma counter

T1 sequence (A0AAA9SPC9 20-1356): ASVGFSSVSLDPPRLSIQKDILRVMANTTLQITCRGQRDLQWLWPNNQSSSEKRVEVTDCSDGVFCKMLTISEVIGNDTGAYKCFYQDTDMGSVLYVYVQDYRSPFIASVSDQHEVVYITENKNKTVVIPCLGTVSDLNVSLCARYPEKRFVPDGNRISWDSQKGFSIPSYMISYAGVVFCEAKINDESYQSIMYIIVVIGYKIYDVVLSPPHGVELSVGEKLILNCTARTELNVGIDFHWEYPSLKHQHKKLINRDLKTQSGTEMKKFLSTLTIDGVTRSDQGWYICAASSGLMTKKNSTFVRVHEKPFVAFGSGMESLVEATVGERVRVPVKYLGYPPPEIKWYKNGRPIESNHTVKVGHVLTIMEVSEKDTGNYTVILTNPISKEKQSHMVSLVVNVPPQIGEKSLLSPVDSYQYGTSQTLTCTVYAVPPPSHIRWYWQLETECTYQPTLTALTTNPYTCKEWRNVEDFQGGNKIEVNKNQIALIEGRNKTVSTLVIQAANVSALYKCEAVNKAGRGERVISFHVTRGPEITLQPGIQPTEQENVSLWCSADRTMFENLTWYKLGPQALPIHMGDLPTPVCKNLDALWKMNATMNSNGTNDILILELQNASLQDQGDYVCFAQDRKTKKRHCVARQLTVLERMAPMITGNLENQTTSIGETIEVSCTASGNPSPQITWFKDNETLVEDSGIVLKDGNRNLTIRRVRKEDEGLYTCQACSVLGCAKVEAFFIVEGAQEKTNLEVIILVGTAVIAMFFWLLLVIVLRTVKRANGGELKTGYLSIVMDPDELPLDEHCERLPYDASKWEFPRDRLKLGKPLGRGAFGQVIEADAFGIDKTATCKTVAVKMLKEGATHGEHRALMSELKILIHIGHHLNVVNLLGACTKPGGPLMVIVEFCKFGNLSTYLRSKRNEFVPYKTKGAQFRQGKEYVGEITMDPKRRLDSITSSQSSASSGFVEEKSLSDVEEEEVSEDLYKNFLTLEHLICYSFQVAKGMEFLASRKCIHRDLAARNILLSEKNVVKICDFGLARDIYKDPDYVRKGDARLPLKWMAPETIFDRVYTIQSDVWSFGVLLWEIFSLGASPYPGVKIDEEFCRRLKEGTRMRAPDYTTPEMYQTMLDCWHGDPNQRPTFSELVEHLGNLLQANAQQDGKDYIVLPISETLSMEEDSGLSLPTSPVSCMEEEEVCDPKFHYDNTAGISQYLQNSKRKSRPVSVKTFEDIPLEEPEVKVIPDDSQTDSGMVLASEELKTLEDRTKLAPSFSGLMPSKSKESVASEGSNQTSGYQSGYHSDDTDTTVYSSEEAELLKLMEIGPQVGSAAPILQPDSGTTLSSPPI

KLTWMELYQLAYKGI (KLTWMELYQLAYKGI-NH2) [MA]
effect on VEGF anti-apoptotic activity (caspase 3) [1]: abolished | binding to HUVEC cells [2]: specifically bound to the cells in a dose-dependent manner | levels of phosphorylated ERK1/2 kinase with VEGF in the presence of peptide [3]: highly reduced | annexin V+ cells [4]: > 22%

VEGF165: Vascular Endothelial Growth Factor, most abundant isoform, 45 KDa glycoprotein (Alexis), positive control in Example 1
phospho-KDR levels [5]: caused the reduction in the levels of phospho-KDR at the membrane | Flt-1 phosphorylation [6]: increases Flt-1 phosphorylation | phosphorylation of the cyclin RB [7]: enhanced phosphorylation of the cyclin RB | BEADS Ischemic to non ischemic ([8]; dyed beads dilution, muscle ratio, infusion 10^-7 M): 0.97 ± 0.12 | ANGIOGRAPHY Number of TFC ([8]; ischemic hindlimb, chronic intrafemoral artery infusion 10^-7 M): 18 ± 2

Ac-KLTWQELYQLKYKGI-NH2 [QK peptide (SEQ ID No.8)]
Kd [9]: 0.316 nM

From patent US20090305994A1, “Compounds Modulating Vegf Receptor and Uses Thereof” (priority 2005, published 2009)
